Among the data in PubChem BioAssay (NCI) are GI50 and TGI values, retold here.

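48-hour exposure; five concentrations; linearly interpolated endpoints. Here, GI50 denotes the concentration required for 50% inhibition of growth. TGI: concentration producing complete growth inhibition.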

Test systems include ACHN renal; HCT-15 colon; HL-60(TB) leukemia; KM12 colon; M14 melanoma; NCI-H460 lung; SK-MEL-28 melanoma; SN12C renal; SW-620 colon; OVCAR-5 ovarian.
What all share (experiment): growth of human tumour cells (NCI), 48 h

`CN(C)CCCNC(=O)c1ccc2c(c1)oc1cc3ccccc3c(=O)n12`: the GI50 in the test with ACHN renal was 8.33 µM; in the test with HCT-15 colon, 12.3 µM; with HL-60(TB) leukemia, 11 µM; in the test with KM12 colon it was 19.1 µM; in the test with M14 melanoma it was 14.3 µM; in the test with NCI-H460 lung it was 9.96 µM. Besides, the GI50 in the test with SK-MEL-28 melanoma is 14.5 µM; in the test with SN12C renal it was 15.4 µM; with SW-620 colon, 15.5 µM. In addition, the TGI was 16.1 µM in the test on ACHN renal; more than 50 µM with HCT-15 colon; 30.8 µM in the test with HL-60(TB) leukemia; more than 50 µM in the test on KM12 colon; 35.5 µM with M14 melanoma; 39.9 µM in the test on NCI-H460 lung. In addition, the TGI in the test with SK-MEL-28 melanoma was 29.3 µM; with SN12C renal it was 43.4 µM; in the test with SW-620 colon, more than 50 µM.

Turning to `CC1=C(C(=O)Nc2cccc(Cl)c2)C(c2ccccc2F)C(C(=O)Nc2cccc(Cl)c2)=C(C)N1`, the TGI in the test with ACHN renal is 46 µM; with HL-60(TB) leukemia, 18.7 µM; in the test with KM12 colon it was 21 µM; with M14 melanoma, 18 µM; in the test on NCI-H460 lung it was 24.1 µM; in the test on OVCAR-5 ovarian, 37.2 µM. Moreover, the TGI came to 23 µM with SK-MEL-28 melanoma, 23 µM with SN12C renal and 64.6 µM with SW-620 colon.

On to `CCOC(=O)/C=C1\CCCC12OCCO2`, for which the TGI with ACHN renal, with HCT-15 colon, with HL-60(TB) leukemia, in the test on KM12 colon, in the test with M14 melanoma and with NCI-H460 lung was more than 100 µM in each case. The TGI with SK-MEL-28 melanoma, in the test on SN12C renal and in the test with SW-620 colon was more than 100 µM throughout.

With `COc1ccc2c(c1)/C(=C\c1c(Cl)[nH]c3ccc(OC)cc13)C(=O)N2`, the GI50 with ACHN renal was 43.3 µM; with HCT-15 colon, more than 100 µM; with HL-60(TB) leukemia, 26.9 µM; with KM12 colon it was 17.5 µM; in the test on M14 melanoma, 21.9 µM; in the test on NCI-H460 lung, 50.7 µM. In addition, the GI50 in the test with OVCAR-5 ovarian is 77.3 µM; in the test with SK-MEL-28 melanoma it was 15.9 µM; with SW-620 colon, 20 µM. The TGI in the test on ACHN renal was more than 100 µM; in the test on HCT-15 colon it was more than 100 µM; in the test with HL-60(TB) leukemia it was 67.3 µM; with KM12 colon, 34.9 µM; in the test with M14 melanoma, 39.8 µM; in the test with NCI-H460 lung, more than 100 µM. The TGI is more than 100 µM with OVCAR-5 ovarian, 40.4 µM in the test on SK-MEL-28 melanoma and 48.9 µM in the test with SW-620 colon.

Consider `Cc1ccc(-c2cc(-c3ccco3)c(C#N)c(=O)n2C2OC(OC(=O)c3ccccc3)C(OC(=O)c3ccccc3)C2OC(=O)c2ccccc2)cc1` (centres undefined), for which the TGI in the test with ACHN renal, in the test with HCT-15 colon, with KM12 colon, with M14 melanoma, with NCI-H460 lung and in the test on OVCAR-5 ovarian was more than 100 µM in each case. Also, the TGI in the test with SK-MEL-28 melanoma, in the test with SN12C renal and with SW-620 colon was more than 100 µM in each case.

`NCCCCNc1ccc2c(=O)[nH][nH]c(=O)c2c1`: the TGI in the test with ACHN renal, with HL-60(TB) leukemia, in the test with KM12 colon, with M14 melanoma, in the test with OVCAR-5 ovarian and with SK-MEL-28 melanoma was more than 100 µM in each case. Besides, the TGI with SN12C renal and in the test with SW-620 colon was more than 100 µM throughout.

`CCN(CC)C(=S)SC`: the TGI with ACHN renal, in the test on HCT-15 colon, in the test on HL-60(TB) leukemia, in the test with M14 melanoma, in the test on NCI-H460 lung and with OVCAR-5 ovarian was more than 100 µM each time. Further, the TGI in the test on SK-MEL-28 melanoma, in the test on SN12C renal and with SW-620 colon was more than 100 µM in each case.

Regarding `CCCCN(CCCC)c1c([N+](=O)[O-])c(=O)nc2ccccn12`, the TGI was more than 100 µM in the test on ACHN renal; more than 100 µM with HCT-15 colon; more than 100 µM in the test on KM12 colon; 83.3 µM in the test with M14 melanoma; 79.4 µM with NCI-H460 lung; more than 100 µM with OVCAR-5 ovarian. Moreover, the figures for the TGI in the test on SK-MEL-28 melanoma, in the test with SN12C renal and with SW-620 colon were 54 µM, more than 100 µM and more than 100 µM, respectively.

As to `Cc1ccccc1C1=C(C(=O)Nc2ccc(Cl)c(Cl)c2)NC(=S)NC1N` (centres undefined), the TGI in the test with ACHN renal, in the test with HCT-15 colon, in the test on KM12 colon, in the test with M14 melanoma, in the test on NCI-H460 lung and in the test with OVCAR-5 ovarian was more than 100 µM in each case. Besides, the TGI in the test on SK-MEL-28 melanoma, with SN12C renal and in the test on SW-620 colon was more than 100 µM each time.

Turning to `COC(=O)c1ccccc1NC(=O)C(=O)NNC(=O)c1ccncc1`, the TGI in the test with ACHN renal, in the test on HCT-15 colon, in the test on HL-60(TB) leukemia, in the test on KM12 colon, in the test on M14 melanoma and with NCI-H460 lung was more than 100 µM throughout. In addition, the TGI with SK-MEL-28 melanoma, with SN12C renal and in the test with SW-620 colon was more than 100 µM throughout.

In the case of `Cc1cc2c(cc1C)N(C(=O)CCl)CCN2C(=O)CCl`, the GI50 was 0.638 µM in the test with ACHN renal; 0.45 µM with HCT-15 colon; 1.72 µM with KM12 colon; 1.08 µM in the test on M14 melanoma; 1.7 µM in the test on NCI-H460 lung; 1.5 µM in the test on OVCAR-5 ovarian. Moreover, the results for the GI50 in the test with SK-MEL-28 melanoma, in the test with SN12C renal and in the test on SW-620 colon were 1.56 µM, 0.754 µM and 0.204 µM, respectively. Further, the TGI with ACHN renal is 2.08 µM; in the test on HCT-15 colon it was 2.42 µM; in the test on KM12 colon it was 3.31 µM; with M14 melanoma, 2.52 µM; in the test with NCI-H460 lung it was 3.33 µM; with OVCAR-5 ovarian, 3.08 µM. In addition, the figures for the TGI in the test with SK-MEL-28 melanoma, with SN12C renal and in the test with SW-620 colon were 2.96 µM, 2.67 µM and 0.42 µM, respectively.

For `COc1ccc(/C=C\c2cc(OC)c(O[Si](C)(C)C(C)(C)C)c(OC)c2)cc1`, the TGI with ACHN renal was more than 100 µM; with KM12 colon, more than 100 µM; in the test on M14 melanoma it was more than 100 µM; with NCI-H460 lung, more than 100 µM; in the test with OVCAR-5 ovarian, more than 100 µM; with SK-MEL-28 melanoma it was 43.4 µM. Further, the TGI in the test with SN12C renal and in the test on SW-620 colon was more than 100 µM in each case.

Regarding `O=C(c1ccncc1)n1nc(-c2ccccc2)c(N=Nc2ccccc2[N+](=O)[O-])c1-c1ccccc1`, the TGI with HL-60(TB) leukemia, with KM12 colon, in the test with M14 melanoma, in the test on SK-MEL-28 melanoma, with SN12C renal and with SW-620 colon was more than 100 µM in each case.
